The values that follow come from patent US20060105045A1, “Cyclodextrin solubilizers for liquid and semi-solid formulations” (priority 2004, published 2006).

Broadly, the bioavailability is the share of a dose that reaches the circulation, judged against a reference dose that is usually intravenous. The low end stands for little systemic uptake, the high end for much systemic uptake.

Structures can show the parent of a compound that is named as a salt.

Data set [1] can be described thus: Initial solubility screening of selected drugs in cyclodextrin derivative:water-miscible organic solvent stock solutions. In kind it is physicochemical. Conditions: for grams of stock solution required to solubilize the drug, Stock #2 / grams of stock solution required to solubilize the drug, Stock #3 / grams of stock solution required to solubilize the drug, Stock #1 / grams of stock solution required to solubilize the drug, Stock #5 / grams of stock solution required to solubilize the drug, Stock #6 / grams of stock solution required to solubilize the drug, Stock #4 / grams of stock solution required to solubilize the drug, Stock #7: 20-22 mg drug, raloxifene HCl + ca. 100 mg water, tamoxifen citrate + ca. 40 mg water; for grams of stock solution required to solubilize the drug, Stock #2 / grams of stock solution required to solubilize the drug, Stock #3 / grams of stock solution required to solubilize the drug, Stock #1: HBenβCD5.0 (30 wt %); for grams of stock solution required to solubilize the drug, Stock #2 / grams of stock solution required to solubilize the drug, Stock #3: PEG 400 (66.2 wt %); for grams of stock solution required to solubilize the drug, Stock #2: EtOH (3.8 wt %); for grams of stock solution required to solubilize the drug, Stock #3: PG (3.8 wt %); for grams of stock solution required to solubilize the drug, Stock #1: PEG 400 (70 wt %); for grams of stock solution required to solubilize the drug, Stock #5 / grams of stock solution required to solubilize the drug, Stock #6 / grams of stock solution required to solubilize the drug, Stock #4: HBenβCD6.6 (32 wt %); for grams of stock solution required to solubilize the drug, Stock #5 / grams of stock solution required to solubilize the drug, Stock #6: PEG 400 (64.6 wt %); for grams of stock solution required to solubilize the drug, Stock #5 / grams of stock solution required to solubilize the drug, Stock #7: EtOH (3.4 wt %); for grams of stock solution required to solubilize the drug, Stock #6: PG (3.4 wt %); for grams of stock solution required to solubilize the drug, Stock #4: PEG 400 (68 wt %); for grams of stock solution required to solubilize the drug, Stock #7: SulfoHBenCD (29 wt %), PEG 400 (67.6 wt %); for amount of stock solutions in which the drug was soluble: after mixing for ca. 48 h, all stock solutions. How it is done:
In the following experiments, the water-miscible solvents were dried as described in example 1. The hydroxybutenyl-β-cyclodextrins (HBenβCD6.6 and HBenβCD5.0) and the sulfonated hydroxybutenyl-β-cyclodextrins (MSsulfonate=0.3, MSbutentyl=4.4) were carefully dried prior to use. The following stock solutions were prepared:
2. HBenβCD5.0 (30 wt %), PEG 400 (66.2 wt %), and EtOH (3.8 wt %)
7. SulfoHBenCD (29 wt %), PEG 400 (67.6 wt %), and EtOH (3.4 wt %)
Various drugs (20-22 mg) were weighed into different glass vials with screw caps. To each vial was added 1 gram (g) ±0.02 g of stock solution. The vial contents were mixed for ca. 48 h. Vials were inspected visually to determine whether the drugs were dissolved.

Data set [2] can be described thus: Pharmacokinetic study, oral bioavailability of tamoxifen:HBenBCD complexes. In kind it is in vivo, Sprague-Dawley rats. The following applies: male, Sprague-Dawley, rat, plasma, 10 mg/kg. The protocol:
7, 2005, concurrently with this application (no Serial assigned at this time). […] The solid complexes were dissolved in the appropriate amount of water for aqueous oral dosing of animals.
The study animal were male Sprague-Dawley rats. […] Each group was sub-divided into 4 groups of 3 animals on the basis of time of dosing (AM or PM) and diet (fed or fasted). In the case of fasted animals, food was removed 8 hours prior to dosing then returned 5 hours post-dose.
Blood samples (ca. 300 μL) were collected from each animal via the jugular or sublingual vein at 1, 2, 3, 4, 6, 12 and 24 hours post-dose. Plasma was separated and stored in 96 well plates at −17 to −80° C. until analysis. […] Plasma (100 μL) was precipitated with 250 μL of acetonitrile. After centrifugation, the supernatant was analyzed for tamoxifen, hydroxytamoxifen, and desmethyltamoxifen by reversed phase LC-MS-MS using diphenhydramine as an internal standard.
This oral suspension dose was given to fed animals in the AM.
The area under the plasma concentration-time curve (AUC) from time zero to 24 h (AUC0-24h) and from time zero to infinity (AUC0-∞) was calculated by standard methods (Clinical Pharmacokinetics, Malcolm Rowland and Thomas Tozer, Lippincott, Williams, & Wilkins, 1995). Oral bioavailability was determined using the AUC from the IV and oral doses adjusted for the animal dose.

In the case of `O=C(c1ccc(OCCN2CCCCC2)cc1)c1c(-c2ccc(O)cc2)sc2cc(O)ccc12` [Raloxifene HCL], in data set [1], the “grams of stock solution required to solubilize the drug, Stock #2” value (“grams of stock solution required … Stock #2” for short) turned out to be 1.4 grams; the “grams of stock solution required to solubilize the drug, Stock #3” value (“grams of stock solution required … Stock #3” for short) amounted to 1.6 grams; the “grams of stock solution required to solubilize the drug, Stock #1” value (“grams of stock solution required … Stock #1” for short) is given as 1.5 grams; the “grams of stock solution required to solubilize the drug, Stock #5” value (“grams of stock solution required … Stock #5” for short) is reported as 1.6 grams. In addition, in data set [1], the “grams of stock solution required to solubilize the drug, Stock #6” value (“grams of stock solution required … Stock #6” for short) is recorded as 1.6 grams; the “grams of stock solution required to solubilize the drug, Stock #4” value (“grams of stock solution required … Stock #4” for short) worked out at 1.6 grams; the “grams of stock solution required to solubilize the drug, Stock #7” value (“grams of stock solution required … Stock #7” for short) is 1.1 grams.

Consider `CC(C)(C#N)c1cc(Cn2cncn2)cc(C(C)(C)C#N)c1` [Anastrozole], for which, in data set [1], the “grams of stock solution required … Stock #2” value turned out to be 1.0 grams; the “grams of stock solution required … Stock #3” value is recorded as 1.0 grams; the “grams of stock solution required … Stock #1” value was 1.0 grams; the “grams of stock solution required … Stock #5” value is 1.0 grams. In data set [1], the “grams of stock solution required … Stock #6” value amounted to 1.0 grams; the “grams of stock solution required … Stock #4” value came out at 1.0 grams; the “grams of stock solution required … Stock #7” value worked out at 1.0 grams; the “amount of stock solutions in which the drug was soluble” value turned out to be 1 g.

For `C=C1C[C@@H]2[C@H](CC[C@]3(C)C(=O)CC[C@@H]23)[C@@]2(C)C=CC(=O)C=C12` [Exemestane], in data set [1], the “grams of stock solution required … Stock #2” value was determined as 1.5 grams; the “grams of stock solution required … Stock #3” value was 1.5 grams; the “grams of stock solution required … Stock #1” value amounted to 1.5 grams; the “grams of stock solution required … Stock #5” value worked out at 1.5 grams. Also, in data set [1], the “grams of stock solution required … Stock #6” value is recorded as 1.5 grams; the “grams of stock solution required … Stock #4” value was 1.5 grams; the “grams of stock solution required … Stock #7” value is on record as 1.5 grams.

The compound `CC/C(=C(\c1ccccc1)c1ccc(OCCN(C)C)cc1)c1ccccc1` [Tamoxifen] came in with a bioavailability in data set [2] of 5%.

For the compound `CC(=O)O[C@H]1C(=O)[C@@]2(C)[C@H]([C@H](OC(=O)c3ccccc3)[C@]3(O)C[C@H](OC(=O)[C@H](O)[C@@H](NC(=O)c4ccccc4)c4ccccc4)C(C)=C1C3(C)C)[C@]1(OC(C)=O)CO[C@@H]1C[C@@H]2O` [Paclitaxel], in data set [1], the “grams of stock solution required … Stock #2” value was found to be 1.0 grams; the “grams of stock solution required … Stock #3” value is 1.0 grams; the “grams of stock solution required … Stock #1” value is 1.0 grams; the “grams of stock solution required … Stock #5” value was determined as 1.0 grams. Besides, in data set [1], the “grams of stock solution required … Stock #6” value is 1.0 grams; the “grams of stock solution required … Stock #4” value turned out to be 1.0 grams; the “grams of stock solution required … Stock #7” value is listed as 1.0 grams; the “amount of stock solutions in which the drug was soluble” value amounted to 1 g.
